Measured values as given in patent publication US4668677A, “4-phenylphthalazine derivatives, their preparation and their use as pharmaceuticals” (Mitsubishi Chemical Industries Limited, priority 1984, dated 1987).
Read-outs that look alike come from different tables or passages of the source.

How the values were obtained:
femoral artery [1] = experiment: Action on blood flow volume in femoral artery; type: in vivo, rabbit (male New Zealand White)
Method: (§1) Male New Zealand White rabbits (body weight of 2.8 Kg to 3.5 Kg) were used and anesthetized with pentobarbital sodium. Blood flow volumes in the carotid artery and femoral artery were measured and recorded via a non-blood observing type of a probe for measuring blood flow volume. Also, blood pressure in femoral artery was simultaneously measured and recorded with measurement of blood flow.
(§2) The compound of this invention was dissolved in an aqueous solution containing 1% tartaric acid and 1% dimethylacetamide, while papaverine hydrochloride dissolved in 0.9% physiological saline. These test compounds were intravenously given through a residual polyethylene tube within femoral vein.

blood platelets = experiment: Activity to inhibit the aggregation of blood platelets (collagen, ex vivo after oral administration); type: in vivo, rat (male Wistar-ST strain); details: Rattus norvegicus, Platelet
Method: Male Wistar-ST strain rats of an average body weight of 250 g were used, a group consisting of 8 animals. The test compound indicated in the following Table 1 was orally administered to rats in the form of a suspension in a 1% tragacanth aqueous solution at 4 ml/Kg (the test compound 10 mg/Kg).
One hour after the administration, blood samples were obtained from the carotid artery by means of a cannule. […] Tubes were turned upside-down and then subjected to centrifugation at 200×g over 15 minutes to assign the supernatant as a platelet-rich plasma (PRP). The residue was further centrifuged at […] over 15 minutes to assign the supernatant as a platelet-poor plasma (PPP). These supernatants were applied for determining the ability to aggregate blood platelets. […] As an aggregation inducing agent, collagen (availale from Hormon-chemie A.G.) was used at a concentration of 7 to 10 μg/ml.
Inhibitory rate to aggregate blood platelets was calculated according to the following equation: [formula] A: […] in the group to which the 1% tragacanth solution alone was given (Control)
B: Aggregation rate in the group to which the tragacanth solution of the test compound was given.

mice = experiment: Anti-thrombotic activity: arachidonic acid-induced mortality in mice; type: in vivo, mouse (male ICR-JCL strain); details: for Survival time of dead mice: arachidonic acid 100 mg/Kg i.v.; for Mortality: arachidonic acid 100 mg/Kg i.v. after 1 hour
Method: (§3) Male ICR-JCL strain mice with an average body weight of about 25 g and male New Zealand White rabbits with an average body weight of about 3 Kg were used.
Where mice were used as experimental animals, a suspension of the test compound indicated in Table 3 in a 1% tragacanth aqueous solution was orally administered to animals at 20 ml/Kg. One hour after the administration, an arachidonic acid (PL-biochemical Co., Inc.) solution dissolved in a 0.1M sodium carbonate aqueous solution was intravenously given at 100 mg/Kg. Evaluation of activity was effected with the time from the administration of arachidonic acid up to the death of animals as well as mortality.

[2] = system: PGI2-like substance in vessel walls; experiment: Influence on production of PGI2-like substance in vessel walls (ADP aggregation with carotid artery ring); type: in vivo, rat (male Wistar-ST strain); details: 1 hour, 10 μM ADP
Method: Male Wistar-ST strain rats with an average weight of about 250 g were used as experimental animals. After fasted for 18 hours, 6.3 ml of blood sample were obtained from corotid artery and immediately thereafter 0.7 ml of an anticoagulant (3.8% sodium citrate) was added and the sample was centrifuged at 200×g over 15 minutes to take platelet-rich plasma (PRP). The same procedures as above were carried out, using 5 to 6 rats, whereby 5-6 ml as normal PRP were stored and employed.
Reference aggregation values were determined by pouring 1 ml each of stored PRP into plastic test tubes, incubating them at 22° C. for 10 minutes and then determining aggregation rate. As an aggregation inducing agent, one employed 10 μM ADP (available from Sigma Co., Inc.)
A suspension of the compound of this invention or aspirin in a 1% aqueous solution of tragacanth was orally given to animals. After 1 hour, 5 mg of carotid artery were cut out in a ring shape and placed into a plastic test tube together with 1 ml of stored PRP. After incubated at 22° C. for 10 minutes, aggregation rate was determined.
Also, non-medicated groups were similarly treated and aggregation rate was determined.
Determination of blood platelet aggregation rate was made by means of an aggregometer.

femoral artery [3] = experiment: Action on blood pressure in femoral artery; type: in vivo, rabbit (male New Zealand White)
Method: as §1, §2

rabbits = experiment: Anti-thrombotic activity: arachidonic acid-induced mortality in rabbits; type: in vivo, rabbit (male New Zealand White)
Method: as §3
Where rabbits were used as experimental animals, a suspension of the test compound in a 1% tragacanth aqueous solution was orally administered to animals at 5 ml/Kg. Two hours after the administration, an arachidonic acid solution dissolved in a 0.1M potassium carbonate solution was injected into pinna vein at 1.4 mg/Kg.
Evaluation of activity was effected with mortality at the time when arachidonic acid given. If survived at the first administration of arachidonic acid, arachidonic acid was administered after 6 hours, 24 hours, 48 hours and 72 hours from the administration of the test compound, respectively, and mortality was determined in respective cases.

CCC(CC)Nc1nnc(-c2ccccc2)c2ccccc12 [Compound 2, 1-(1-ethylpropylamino)-4-phenylphthalazine]
Blood flow volume in femoral artery, A: Before administration (femoral artery [1]; 0.01 mg/Kg i.v.): 20.9 mL/min
Blood flow volume in femoral artery, B: After administration (femoral artery [1]; 0.01 mg/Kg i.v.): 26.5 mL/min
Blood flow volume in femoral artery, C: Increase degree (femoral artery [1]; 0.01 mg/kg i.v.): 5.6 mL/min
Blood flow volume in femoral artery, D: Increase rate (femoral artery [1]; 0.01 mg/kg i.v.): 28.5%
Blood flow volume in femoral artery, A: Before administration (femoral artery [1]; 0.05 mg/Kg i.v.): 18.8 mL/min
Blood flow volume in femoral artery, B: After administration (femoral artery [1]; 0.05 mg/Kg i.v.): 20.3 mL/min
Blood flow volume in femoral artery, C: Increase degree (femoral artery [1]; 0.05 mg/kg i.v.): 3.3 mL/min
Blood flow volume in femoral artery, D: Increase rate (femoral artery [1]; 0.05 mg/kg i.v.): 13.4%
Blood flow volume in femoral artery, A: Before administration (femoral artery [1]; 0.1 mg/Kg i.v.): 15.9 mL/min
Blood flow volume in femoral artery, B: After administration (femoral artery [1]; 0.1 mg/Kg i.v.): 12.5 mL/min
Blood flow volume in femoral artery, C: Increase degree (femoral artery [1]; 0.1 mg/kg i.v.): 3.4 mL/min
Blood flow volume in femoral artery, D: Increase rate (femoral artery [1]; 0.1 mg/kg i.v.): 23.4%
Blood flow volume in femoral artery, A: Before administration (femoral artery [1]; 0.5 mg/Kg i.v.): 19.5 mL/min
Blood flow volume in femoral artery, B: After administration (femoral artery [1]; 0.5 mg/Kg i.v.): 13.8 mL/min
Blood flow volume in femoral artery, C: Increase degree (femoral artery [1]; 0.5 mg/kg i.v.): 5.7 mL/min
Blood flow volume in femoral artery, D: Increase rate (femoral artery [1]; 0.5 mg/kg i.v.): 36.7%
inhibition at 3 mg/kg (blood platelets; 3 mg/Kg oral (Table 5), read-out: Inhibitory rate of blood platelet aggregation): 39%
inhibition at 10 mg/kg (blood platelets; 10 mg/Kg oral (Table 5), read-out: Inhibitory rate of blood platelet aggregation): 70.1%
inhibition at 10 mg/kg (blood platelets; 10 mg/Kg oral, 1 hour after administration, collagen 7 to 10 μg/ml, read-out: Inhibitory rate (blood platelet aggregation)): 70.1%
inhibition at 30 mg/kg (blood platelets; 30 mg/Kg oral (Table 5), read-out: Inhibitory rate of blood platelet aggregation): 85.5%
inhibition at 100 mg/kg (blood platelets; 100 mg/Kg oral (Table 5), read-out: Inhibitory rate of blood platelet aggregation): 100%
Survival time of dead mice (mice; 10 mg/Kg oral): 127 ± 14 s
Mortality (mice; 10 mg/Kg oral): 86%
Survival time of dead mice (mice; 30 mg/Kg oral): 127.5 ± 14 s
Mortality (mice; 30 mg/Kg oral): 86%
Mortality (mice; 100 mg/Kg oral): 0%
Mortality (mice; 300 mg/Kg oral): 0%
Aggregation rate with ADP when carotid artery ring added ([2]; 3 mg/Kg oral): 0.0%
Aggregation rate with ADP when carotid artery ring added ([2]; 10 mg/Kg oral): 7.7%
Aggregation rate with ADP when carotid artery ring added ([2]; 30 mg/Kg oral): 1.3%
Aggregation rate with ADP when carotid artery ring added ([2]; 100 mg/Kg oral): 23.3%
Blood pressure in femoral artery, A: Before administration (femoral artery [3]; 0.01 mg/kg i.v.): 93.8 mmHg
Blood pressure in femoral artery, B: After administration (femoral artery [3]; 0.01 mg/kg i.v.): 91.3 mmHg
Blood pressure in femoral artery, E: Lowering degree (femoral artery [3]; 0.01 mg/kg i.v.): 2.5 mmHg
Blood pressure in femoral artery, F: Lowering rate (femoral artery [3]; 0.01 mg/kg i.v.): 2.7%
Blood pressure in femoral artery, A: Before administration (femoral artery [3]; 0.05 mg/kg i.v.): 90.8 mmHg
Blood pressure in femoral artery, B: After administration (femoral artery [3]; 0.05 mg/kg i.v.): 83.7 mmHg
Blood pressure in femoral artery, E: Lowering degree (femoral artery [3]; 0.05 mg/kg i.v.): 7.1 mmHg
Blood pressure in femoral artery, F: Lowering rate (femoral artery [3]; 0.05 mg/kg i.v.): 8.07%
Blood pressure in femoral artery, A: Before administration (femoral artery [3]; 0.1 mg/kg i.v.): 88.8 mmHg
Blood pressure in femoral artery, B: After administration (femoral artery [3]; 0.1 mg/kg i.v.): 78.1 mmHg
Blood pressure in femoral artery, E: Lowering degree (femoral artery [3]; 0.1 mg/kg i.v.): 10.6 mmHg
Blood pressure in femoral artery, F: Lowering rate (femoral artery [3]; 0.1 mg/kg i.v.): 11.6%
Blood pressure in femoral artery, A: Before administration (femoral artery [3]; 0.5 mg/kg i.v.): 87.5 mmHg
Blood pressure in femoral artery, B: After administration (femoral artery [3]; 0.5 mg/kg i.v.): 69.2 mmHg
Blood pressure in femoral artery, E: Lowering degree (femoral artery [3]; 0.5 mg/kg i.v.): 18.3 mmHg
Blood pressure in femoral artery, F: Lowering rate (femoral artery [3]; 0.5 mg/kg i.v.): 21.2%
Mortality (number of rabbits) (rabbits; 3 mg/Kg oral, 2 hrs. after administration, of 4 rabbits): 2
Mortality (number of rabbits) (rabbits; 3 mg/Kg oral, 6 hrs. after administration, of 4 rabbits): 1
Mortality (number of rabbits) (rabbits; 3 mg/Kg oral, 24 hrs. after administration, of 4 rabbits): 1
Mortality (number of rabbits) (rabbits; 10 mg/Kg oral, 6 hrs. after administration, of 4 rabbits): 4
Mortality (number of rabbits) (rabbits; 30 mg/Kg oral, 24 hrs. after administration, of 8 (Compound 1) or 4 rabbits): 2
Mortality (number of rabbits) (rabbits; 30 mg/Kg oral, 48 hrs. after administration, of 8 (Compound 1) or 4 rabbits): 2
